{"source": "patent US20260284015A1", "about": "“DOSAGE REGIME OF CRINECERFONT FOR TREATING CONGENITAL ADRENAL HYPERPLASIA” (Neurocrine Biosciences, Inc., priority 2023, published 2026)", "origin": "cited, not measured here", "data": [{"settings": "glucocorticoid dose conversion factor relative to hydrocortisone", "units": {"Hydrocortisone dose equivalent conversion": "×"}, "values": [{"smiles": "C[C@@H]1C[C@H]2[C@@H]3CCC4=CC(=O)C=C[C@]4(C)[C@@]3(F)[C@@H](O)C[C@]2(C)[C@@]1(O)C(=O)CO", "note": "[Dexamethasone]", "Hydrocortisone dose equivalent conversion": 60}, {"smiles": "C[C@H]1C[C@@H]2[C@H]([C@@H](O)C[C@@]3(C)[C@H]2CC[C@]3(O)C(=O)CO)[C@@]2(C)C=CC(=O)C=C12", "note": "[Methylprednisolone]", "Hydrocortisone dose equivalent conversion": 4}, {"smiles": "C[C@]12C=CC(=O)C=C1CC[C@@H]1[C@@H]2[C@@H](O)C[C@@]2(C)[C@H]1CC[C@]2(O)C(=O)CO", "note": "[Prednisolone]", "Hydrocortisone dose equivalent conversion": 4}]}]}
